Experimental data: patent US8143003B2, “Method for detecting oral squamous-cell carcinoma” (Fujifilm Corporation, priority 2008, dated 2012)
“Also recorded” adds a separate entry of the source.

What was measured:
Assay type in all cases: cell-based
[1] = tested on: MTNR1A gene expression in oral squamous-cell carcinoma cell lines (TOSCa-50, ZA, and NA); experiment: Recovery of MTNR1A gene expression by demethylation, examined by RT-PCR
Method: (C) MTNR1A expression was recovered by a demethylation treatment performed on cells in which the gene was not expressed. The cells were treated using a 1 μM or 5 μM demethylating reagent 5-aza-dCyd for 5 days and/or using a deacetylation inhibitory agent TSA (100 ng/ml) for 12 hours. GAPDH was used as an internal control.
Specifically, single-stranded cDNA was synthesized from the RNA extracted from each cultured cell line using the SuperScript First-Strand Synthesis System (Invitrogen). Moreover, a glyceraldehyde-3-phosphate dehydrogenase (GAPDH) gene was used as a control.
In order to examine if the suppressed expression of the MTNR1A gene was due to DNA methylation, oral squamous-cell carcinoma cell lines (TOSCa-50, ZA, and NA) that had not expressed the MTNR1A gene were treated with a 1 μM or 5 μM demethylating reagent 5-aza-dCyd for 5 days and/or with a deacetylation inhibitory agent TSA (100 ng/ml) for 12 hours. RNAs were extracted from these cells, and MTNR1A gene expression was then examined by RT-PCR (FIG. 2c).

[2] = tested on: CYP4V2 gene expression in cell lines with decreased expression; experiment: CYP4V2 gene expression after treatment with 5-aza-dCyd and/or TSA
Method: (§1) (A) The expression status of a DKFZP564J gene and a CYP4V2 gene in cell lines in which the expression levels of the aforementioned genes had been decreased, which were treated with 5-aza-dCyd and/or TSA.

[3] = tested on: DKFZP564J gene expression in cell lines with decreased expression; experiment: DKFZP564J gene expression after treatment with 5-aza-dCyd and/or TSA
Method: as §1

| Compound | MTNR1A gene expression (RT-PCR) ([1]; 1 μM or 5 μM 5-aza-dCyd for 5 days, NA cells not expressing MTNR1A) | CYP4V2 gene expression [2] | DKFZP564J gene expression [3] | MTNR1A gene expression (RT-PCR) ([1]; TSA 100 ng/ml for 12 hours, NA cells) |
| --- | --- | --- | --- | --- |
| Nc1ncn([C@H]2C[C@H](O)[C@@H](CO)O2)c(=O)n1 [5-aza-dCyd, 5-azadeoxycytidine] | recovers its gene expression; also recorded: possible to recover the expression level of the MTNR1A gene | gene expression was not recovered | gene expression was not recovered |  |
| CC(/C=C/C(=O)NO)=C\[C@@H](C)C(=O)c1ccc(N(C)C)cc1 [TSA] |  |  |  | no differences in MTNR1A gene expression |
